In patent publication US8816070B2, “Triazole derivative as an HSP 90 inhibitor” (Merck Patent GmbH, priority 2007, dated 2014):

Experiments:
Recombinant human HSP90α = target: T1, Recombinant human HSP90α (Homo sapiens, UniProt P07900); test: HSP90 radioligand filter binding test ([3H]17AAG competition)
T1 construct: host or cells: E. coli
Description: The binding of geldanamycin or 17-allylamino-17-demethoxygeldanamycin (17AAG) to HSP90 and competitive inhibition thereof can be utilised in order to determine the inhibitory activity of the compounds according to the invention (Carreras et al. 2003, Chiosis et al. 2002).
In the specific case, a radioligand filter binding test is used. The radioligand used here is tritium-labelled 17-allylaminogeldanamycin, [3H]17AAG. This filter binding test allows a targeted search for inhibitors which interfere with the ATP binding site.
Recombinant human HSP90α (E. coli expressed, 95% purity); [3H]17AAG (17-allylaminogeldanamycin, [allylamino-2,3-^3H. Specific activity: 1.11×10^12 Bq/mmol (Moravek, MT-1717);
HEPES filter buffer (50 mM HEPES, pH 7.0, 5 mM MgCl2, BSA 0.01%) Multiscreen FB (1 μm) filter plate (Millipore, MAFBNOB 50).
The 96-well microtitre filter plates are firstly irrigated and coated with 0.1% of polyethylenimine.
At the end of the reaction, the supernatant in the filter plate is removed by suction with the aid of a vacuum manifold (Multiscreen Separation System, Millipore), and the filter is washed twice.
The filter plates are then measured in a beta counter (Microbeta, Wallac) with scintillator (Microscint 20, Packard).
“% of control” is determined from the “counts per minutes” values and the IC50 value of a compound is calculated therefrom.

[1] = Relative stability of polymorphic forms of C1; assay type: physicochemical; conditions: form A1 versus form A2 of C1
Description: Two polymorphic forms A1 and A2 of the compound “C1” according to the invention can be isolated.
Form A2 can be converted into A1, for example by stirring in solvents such as methanol, ethanol, acetone, DMF, acetic acid, formic acid, THF or isopropanol.

Compound	higher activity in HSP90 inhibition compared with "A47" (Recombinant human HSP90α; C1 versus A47 from the closest prior art)	IC50 (Recombinant human HSP90α; [3H]17AAG 0.08 μM, 22° C., 30 min, read-out: HSP90 inhibition IC50) [nM]	thermodynamic stability of polymorphic form [1]
CCCCN(C)C(=O)c1cc(-c2n[nH]c(=O)n2-c2ccccc2C)c(O)cc1O [Compound C1, 5-[4-(2-methylphenyl)-3-hydroxy-4H-1,2,4-triazol-5-yl]-2,4-dihydroxy-N-methyl-N-butylbenzamide]	approximately 10 times	29	–
CCCCN(C)C(=O)c1cc(-c2nnc(O)n2-c2ccccc2C)c(O)cc1O [Form A1, 5-[4-(2-methylphenyl)-3-hydroxy-4H-1,2,4-triazol-5-yl]-2,4-dihydroxy-N-methyl-N-butylbenzamide]	–	–	thermodynamically more stable form
